Several values for one entry are separate records, joined by “and”; a condition that tells them apart may be missing. Equal entries are not always repeated.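 Tested at 5 concentrations; 48 h exposure; 96-well plates; endpoints linearly interpolated, else capped at highest concentration. At the GI50, growth is halved. TGI marks complete inhibition of growth.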
Assays:
Experiment in all cases: DTP human tumour cell line panel, 48 h
LOX IMVI melanoma = system: LOX IMVI melanoma
OVCAR-4 ovarian = system: OVCAR-4 ovarian
T-47D breast = system: T-47D breast
UACC-257 melanoma = system: UACC-257 melanoma
HOP-92 NSCLC = system: HOP-92 NSCLC
SF-539 CNS = system: SF-539 CNS
SK-MEL-28 melanoma = system: SK-MEL-28 melanoma
HCT-15 colon = system: HCT-15 colon
MDA-MB-435 = system: MDA-MB-435
SR leukemia = system: SR leukemia

SMILES | GI50 (LOX IMVI melanoma) | TGI (LOX IMVI melanoma) | GI50 (OVCAR-4 ovarian) | TGI (OVCAR-4 ovarian) | GI50 (T-47D breast) | TGI (T-47D breast) | GI50 (UACC-257 melanoma) | TGI (UACC-257 melanoma) | GI50 (HOP-92 NSCLC) | TGI (HOP-92 NSCLC) | GI50 (SF-539 CNS) | TGI (SF-539 CNS) | GI50 (SK-MEL-28 melanoma) | TGI (SK-MEL-28 melanoma) | GI50 (HCT-15 colon) | TGI (HCT-15 colon) | GI50 (MDA-MB-435) | TGI (MDA-MB-435) | GI50 (SR leukemia) | TGI (SR leukemia)
CN(C)CCN1C(=O)c2cccc3c(N)ccc(c23)C1=O | 8440 nM | > 25000 nM | 14100 nM | > 25000 nM | 17000 nM | > 25000 nM | 11200 nM | > 25000 nM | 19400 nM | > 25000 nM | 9140 nM | > 25000 nM | 11900 nM | > 25000 nM | 9320 nM | > 25000 nM | 11100 nM | > 25000 nM | 4590 nM | 13300 nM
O=C(Nc1ccc(Cl)cc1F)c1cc(F)ccc1O | 522 nM | 5310 nM | 941 nM | > 29600 nM | 904 nM | > 23500 nM | 853 nM | 7200 nM | 196 nM | 874 nM | 845 nM | 7580 nM | 485 nM | 2630 nM | 1460 nM | 9620 nM | 626 nM | 5510 nM | 752 nM | > 100000 nM
COc1cc(OC)cc(-c2ccc(-c3ccc(C(=N)N)s3)s2)c1 | 221 nM | 495 nM | 1440 nM | 3620 nM | 1360 nM | 3150 nM | 1770 nM | 3360 nM | 883 nM and 528 nM | 2390 nM and 2100 nM | 1240 nM | 3450 nM | 1520 nM | 3510 nM | 294 nM | 1010 nM | 271 nM | 991 nM | 331 nM and 244 nM | 918 nM and 598 nM
CCN1/C(=C/C=C/C=C/c2sc3ccccc3[n+]2CC)Sc2ccccc21 | 296 nM | 1600 nM | 261 nM | 2510 nM | 101 nM | 669 nM | 475 nM | 2940 nM | 320 nM | 3270 nM | 377 nM | 2490 nM | 720 nM | 2750 nM | 1220 nM | 4700 nM | 314 nM | 1310 nM | 30.4 nM | 1020 nM
O=C1c2ccc3c4c(ccc(c24)C(=O)N1CCCNCc1ccccc1)C(=O)N(CCCNCc1ccccc1)C3=O | 135 nM | 363 nM | 119 nM | 248 nM | 192 nM | 429 nM | 199 nM | 386 nM | 199 nM | 585 nM | 194 nM | 450 nM | 247 nM | 636 nM | 116 nM | 316 nM | 180 nM | 356 nM | 75.6 nM | 505 nM
Cc1coc2c1CC1OC1(C)CCC1OC1(C)C2 (stereo not drawn) |  | > 100000 nM |  | > 100000 nM |  | > 100000 nM |  | > 100000 nM |  | > 100000 nM |  | > 100000 nM |  | > 100000 nM |  | > 100000 nM |  | > 100000 nM |  | > 100000 nM
Cc1cc(C(=O)N[C@@H](CCC(=O)O)C(=O)O)sc1CC[C@@H]1CNc2nc(N)[nH]c(=O)c2C1 | 26.8 nM | > 100000 nM | 23300 nM | > 100000 nM | 82.5 nM | > 100000 nM | 55.9 nM | > 100000 nM | 59.2 nM | > 100000 nM | < 10 nM | > 100000 nM | 37.7 nM | > 100000 nM | 42 nM | > 100000 nM | 29.6 nM | > 100000 nM | < 10 nM | > 100000 nM
CN(C)CCNC(=O)c1cccc2cc([N+](=O)[O-])ccc12 | 566 nM and 129 nM |  | 2100 nM and 311 nM |  |  | 16300 nM |  | 897 nM |  | 1340 nM | 886 nM and 146 nM | 2340 nM and 606 nM | 1830 nM and 279 nM | 4200 nM and 977 nM | 1710 nM and 196 nM | 11500 nM and 1380 nM |  | 7700 nM |  | 132 nM
Cc1cc(O)c(C2=NN(c3ccc(S(N)(=O)=O)cc3)C(c3ccccc3O)C2)cc1Cl (stereo not drawn) | 1630 nM | 3030 nM | 2890 nM | 9580 nM | 2610 nM | 11300 nM | 3450 nM | 8740 nM | 1460 nM | 6510 nM | 1610 nM | 3040 nM | 2740 nM | 6800 nM | 2390 nM | 6250 nM | 2010 nM | 4320 nM | 2220 nM | 26700 nM
Cc1c2cnccc2c(C)c2c1c1cc(C(=O)O)ccc1n2C | 579 nM | 4180 nM | 1430 nM | 6590 nM | 1510 nM | > 26500 nM | 1120 nM | 4840 nM | 913 nM | 5950 nM | 1010 nM | 3270 nM | 1360 nM | 3710 nM | 804 nM | 7820 nM | 1330 nM | 3400 nM | 435 nM | 3980 nM
OC(COc1cccc2ccccc12)CN1CCN(c2ccc(Cl)cc2)CC1 (stereo not drawn) | 26300 nM | > 100000 nM | 21700 nM | 49300 nM | 81300 nM | > 100000 nM | 42300 nM | > 100000 nM | 5020 nM | 28000 nM | 22600 nM | 68500 nM | 26900 nM | 71600 nM | > 100000 nM | > 100000 nM | 38800 nM | > 100000 nM | > 100000 nM | > 100000 nM
COc1cc(-c2nc3ccccc3[nH]2)ccc1OCC(=O)N=Nc1c(O)[nH]c2ccc(Cl)cc12 | 337 nM | 1240 nM | 2020 nM | 3540 nM | 1660 nM | 3750 nM | 1910 nM | 3780 nM | 1500 nM | 3070 nM | 1690 nM | 3100 nM | 1810 nM | 3220 nM | 4900 nM | > 100000 nM | 1430 nM | 2760 nM | 292 nM | 1050 nM

Source: PubChem BioAssay (NCI)
